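Following 48 hours of exposure in 96-well plates, responses at five concentrations were used to interpolate endpoints linearly. GI50 marks 50% less growth.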 Active and inactive are the calls of the source. No stated cut-off is given here; in the data, active = GI50 up to about 1.1 µM and inactive = higher. Residues, ends and D or L forms follow the SMILES beside them. *: point of attachment. X38 = O=C(c1ccc(-c2ccc(Cl)cc2Cl)o1)*
Tests used:
Experiment in all cases: NCI anticancer screen, dose series, 48 h
HCT-116 = tested on: HCT-116
SNB-19 = tested on: SNB-19
HOP-92 = tested on: HOP-92
UO-31 = tested on: UO-31
Malme-3M = tested on: Malme-3M
CCRF-CEM = tested on: CCRF-CEM
HCT-15 = tested on: HCT-15
HL-60 = tested on: HL-60
NCI/ADR-RES = tested on: NCI/ADR-RES
NCI-H226 = tested on: NCI-H226
SNB-75 = tested on: SNB-75
OVCAR-3 = tested on: OVCAR-3
SK-OV-3 = tested on: SK-OV-3
MOLT-4 = tested on: MOLT-4
LOX IMVI = tested on: LOX IMVI
M14 = tested on: M14
A549 = tested on: A549
OVCAR-5 = tested on: OVCAR-5
SF-295 = tested on: SF-295
UACC-62 = tested on: UACC-62

SMILES	GI50 (HCT-116)	GI50 (SNB-19)	GI50 (HOP-92)	GI50 (UO-31)	GI50 (Malme-3M)	GI50 (CCRF-CEM)	GI50 (HCT-15) [µM]	GI50 (HL-60)	GI50 (NCI/ADR-RES)	GI50 (NCI-H226)	GI50 (SNB-75)	GI50 (OVCAR-3)	GI50 (SK-OV-3)	GI50 (MOLT-4)	GI50 (LOX IMVI)	GI50 (M14)	GI50 (A549)	GI50 (OVCAR-5)	GI50 (SF-295)	GI50 (UACC-62)
O=[N+]([O-])c1cccc2nc3ccccc3c(NCCCn3ccnc3[N+](=O)[O-])c12	< 0.0001 µM (active)	0.000366 µM (active)	0.000187 µM (active)	0.00076 µM (active)	0.00023 µM (active)	0.00574 µM (active)	0.000131	0.000889 µM (active)	0.0238 µM (active)	0.000245 µM (active)	0.0137 µM (active)	0.00309 µM (active)	0.0229 µM (active)	0.000336 µM (active)	0.0158 µM (active)	< 0.0001 µM (active)	0.000122 µM (active)	0.00017 µM (active)	0.0117 µM (active)	0.000959 µM (active)
COc1cc(NCc2ccc3nc(OC)c(OC)nc3c2)cc(OC)c1OC	> 100 µM (inactive)	> 100 µM (inactive)	> 100 µM (inactive)	> 100 µM (inactive)	> 100 µM (inactive)	83.9 µM (inactive)	> 100	> 100 µM (inactive)	42.1 µM (inactive)	> 100 µM (inactive)	54.8 µM (inactive)	> 100 µM (inactive)	> 100 µM (inactive)	> 100 µM (inactive)	> 100 µM (inactive)	> 100 µM (inactive)	> 100 µM (inactive)	> 100 µM (inactive)	80.5 µM (inactive)	> 100 µM (inactive)
COC(=O)C(CC(C)C)NC(=O)C(Cc1ccccc1)NC(=O)C1CCCN1C(=O)C(CO)NC(=O)c1ccc(-c2ccc(Cl)cc2Cl)o1 (configuration not stated) (X38-SPFL-OMe; configuration not given here)	22.6 µM (inactive)	21.9 µM (inactive)	21.2 µM (inactive)	23.9 µM (inactive)	42.1 µM (inactive)	36.8 µM (inactive)	24	19.5 µM (inactive)	28.8 µM (inactive)	19.1 µM (inactive)	25.7 µM (inactive)		1.11 µM (active)	22.2 µM (inactive)	21.8 µM (inactive)	19.9 µM (inactive)	26.1 µM (inactive)	21.9 µM (inactive)	19.5 µM (inactive)	23.8 µM (inactive)
O=C(/C=C/c1ccco1)CC(=O)/C=C/c1ccco1	11.4 µM (inactive)	15.5 µM (inactive)	28.8 µM (inactive)	13.3 µM (inactive)	13 µM (inactive)	6.17 µM (inactive)	12.5	5.55 µM (inactive)	12.8 µM (inactive)	> 10 µM (inactive)	18 µM (inactive)	> 10 µM (inactive)	> 10 µM (inactive)	12 µM (inactive)	4.99 µM (inactive)	14.7 µM (inactive)	14.4 µM (inactive)	16.9 µM (inactive)	> 10 µM (inactive)	13.5 µM (inactive)
O=C1NC(=O)[C@@]2(CC[C@@H](O)C2)c2ccncc21 [SESBANINE]	> 100 µM (inactive)	> 100 µM (inactive)	> 100 µM (inactive)	> 100 µM (inactive)	> 100 µM (inactive)	> 100 µM (inactive)	> 100	> 100 µM (inactive)	> 100 µM (inactive)	> 100 µM (inactive)	> 100 µM (inactive)		> 100 µM (inactive)	> 100 µM (inactive)	> 100 µM (inactive)	> 100 µM (inactive)	> 100 µM (inactive)	> 100 µM (inactive)	> 10 µM (inactive)	> 100 µM (inactive)
O=C(Nc1ccc(-c2cn3ccccc3n2)cc1)c1cc(Br)ccc1O	> 100 µM (inactive)	> 100 µM (inactive)	> 100 µM (inactive)		> 100 µM (inactive)	> 100 µM (inactive)	> 100	> 100 µM (inactive)	> 100 µM (inactive)	> 100 µM (inactive)	> 100 µM (inactive)	> 100 µM (inactive)	> 100 µM (inactive)	> 100 µM (inactive)	> 100 µM (inactive)	> 100 µM (inactive)	> 100 µM (inactive)	> 100 µM (inactive)	> 100 µM (inactive)	> 100 µM (inactive)
Cc1ccc2c(O)cc(-c3ccsc3)nc2n1	3.62 µM (inactive)	6.59 µM (inactive)	> 24.6 µM (inactive)	2.32 µM (inactive)	3.66 µM (inactive)	6.18 µM (inactive)	1.68	2.17 µM (inactive)	2.29 µM (inactive)	4.13 µM (inactive)	3.14 µM (inactive)	6.46 µM (inactive)	10 µM (inactive)	3.56 µM (inactive)	3.62 µM (inactive)	3.21 µM (inactive)	5.24 µM (inactive)	15.8 µM (inactive)	3.44 µM (inactive)	4.61 µM (inactive)

From ChEMBL document CHEMBL1201862, “PubChem BioAssay data set” (2004)
